Laboratory results as given in ChEMBL document CHEMBL5370691, “Novel Pyrido[3,2-d]pyrimidines as HPK1 Inhibitors for Treating Cancer and Inflammatory and Autoimmune Diseases” (ACS Med Chem Lett, 2023).

Molecular target: Mitogen-activated protein kinase kinase kinase kinase 1 (Homo sapiens, UniProt Q92918)
Assay: Inhibition of N-terminal GST-tagged full-length human HPK1 expressed in baculovirus infected Sf21 cells using MBP as substrate preincubated for 15 mins followed by substrate addition and measured after 120 mins in presence of ATP by ADP-glo assay

Sequence of Mitogen-activated protein kinase kinase kinase kinase 1 (Q92918 whole entry): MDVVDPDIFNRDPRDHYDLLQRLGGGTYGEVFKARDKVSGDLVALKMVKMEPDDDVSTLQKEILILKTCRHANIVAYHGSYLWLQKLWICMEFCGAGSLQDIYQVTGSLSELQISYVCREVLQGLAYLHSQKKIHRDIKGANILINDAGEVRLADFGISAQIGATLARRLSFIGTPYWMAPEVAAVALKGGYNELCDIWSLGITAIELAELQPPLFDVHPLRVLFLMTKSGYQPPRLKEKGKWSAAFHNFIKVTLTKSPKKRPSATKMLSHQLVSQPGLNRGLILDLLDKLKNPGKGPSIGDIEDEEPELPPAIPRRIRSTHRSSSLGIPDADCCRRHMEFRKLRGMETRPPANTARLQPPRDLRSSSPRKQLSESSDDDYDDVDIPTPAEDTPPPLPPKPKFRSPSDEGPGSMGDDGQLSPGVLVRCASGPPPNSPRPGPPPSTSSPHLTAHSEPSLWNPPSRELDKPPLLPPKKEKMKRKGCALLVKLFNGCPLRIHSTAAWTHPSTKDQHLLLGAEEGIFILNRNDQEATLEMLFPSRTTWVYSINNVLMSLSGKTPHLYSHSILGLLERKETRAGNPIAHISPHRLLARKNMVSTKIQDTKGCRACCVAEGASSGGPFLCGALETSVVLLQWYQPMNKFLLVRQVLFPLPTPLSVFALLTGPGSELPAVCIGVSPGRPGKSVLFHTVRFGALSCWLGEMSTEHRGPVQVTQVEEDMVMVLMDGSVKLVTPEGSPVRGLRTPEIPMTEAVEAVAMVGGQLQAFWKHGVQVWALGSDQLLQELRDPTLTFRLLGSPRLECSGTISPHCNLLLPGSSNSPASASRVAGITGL

| SMILES | IC50 |
| --- | --- |
| CS(=O)(=O)Cc1ccc(-c2cc(C(N)=O)c3ncnc(N[C@H]4CCCNC4)c3n2)cc1 | < 100 nM |
| COc1ccccc1-c1cc(C(N)=O)c2ncnc(N[C@H]3CCCNC3)c2n1 | < 100 nM |
| NC(=O)c1cc(-c2ccc(C3(O)CC3)cc2)nc2c(N[C@H]3CCCNC3)ncnc12 | < 100 nM |
| COCCOc1ccc(-c2cc(C(N)=O)c3ncnc(N[C@H]4CCCNC4)c3n2)c(C#N)c1 | < 100 nM |
| CN1CCN(c2ccc(-c3cc(C(N)=O)c4ncnc(N[C@H]5CCCNC5)c4n3)cn2)CC1 | < 100 nM |
| NC(=O)c1cc(-c2ccc(F)cc2)nc2c(N[C@H]3CCCNC3)ncnc12 | < 100 nM |
